We go through 13 molecules from ChEMBL document CHEMBL1909046, “DrugMatrix in vitro pharmacology data”.

The target of one series is Cytochrome P450 3A4 (Homo sapiens, UniProt P08684). The conditions noted are these: bti-tn-5b1-4.
Another series concerns the target Estrogen receptor beta (Homo sapiens, UniProt Q92731). Conditions: sf9. Also: in other assays of this panel Not Active means under 50% inhibition at 10 µM.
Series [1] addresses Sodium-dependent noradrenaline transporter (Homo sapiens, UniProt P23975). Nature of the series: DRUGMATRIX: Norepinephrine Transporter radioligand binding (ligand: [125I] RTI-55). In kind it is cell membranes, MDCK, Membrane. Conditions: Not Active = under 50% inhibition at 10 µM; for Ki: read-out: Ki.
The next series concerns the target Cytochrome P450 2D6 (Homo sapiens, UniProt P10635). Also: in other assays of this panel Not Active means under 50% inhibition at 10 µM.
The target of a further series is T1, Estrogen receptor (Homo sapiens, UniProt P03372).
T1 sequence (P03372 whole entry): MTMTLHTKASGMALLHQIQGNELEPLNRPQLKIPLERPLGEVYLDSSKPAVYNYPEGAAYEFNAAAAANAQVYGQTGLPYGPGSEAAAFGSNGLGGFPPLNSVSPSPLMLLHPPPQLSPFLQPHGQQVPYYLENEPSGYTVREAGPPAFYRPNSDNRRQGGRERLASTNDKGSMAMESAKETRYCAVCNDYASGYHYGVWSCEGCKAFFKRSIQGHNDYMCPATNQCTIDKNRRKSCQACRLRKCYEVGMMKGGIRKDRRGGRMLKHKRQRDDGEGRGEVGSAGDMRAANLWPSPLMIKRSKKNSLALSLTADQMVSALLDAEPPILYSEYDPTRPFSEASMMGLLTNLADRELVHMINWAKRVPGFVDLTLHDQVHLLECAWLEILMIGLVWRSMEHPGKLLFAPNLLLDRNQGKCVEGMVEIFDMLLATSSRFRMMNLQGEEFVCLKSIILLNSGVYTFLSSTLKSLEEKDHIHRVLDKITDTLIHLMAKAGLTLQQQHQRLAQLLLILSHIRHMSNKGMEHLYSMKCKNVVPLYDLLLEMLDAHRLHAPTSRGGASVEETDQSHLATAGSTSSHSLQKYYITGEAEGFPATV
The conditions noted are these: sf9.

The next series deals with Cytochrome P450 2C9 (Homo sapiens, UniProt P11712). Conditions: bti-tn-5b1-4.
A further series deals with T2, Androgen receptor (Rattus norvegicus, UniProt P15207).
T2 sequence (P15207 whole entry): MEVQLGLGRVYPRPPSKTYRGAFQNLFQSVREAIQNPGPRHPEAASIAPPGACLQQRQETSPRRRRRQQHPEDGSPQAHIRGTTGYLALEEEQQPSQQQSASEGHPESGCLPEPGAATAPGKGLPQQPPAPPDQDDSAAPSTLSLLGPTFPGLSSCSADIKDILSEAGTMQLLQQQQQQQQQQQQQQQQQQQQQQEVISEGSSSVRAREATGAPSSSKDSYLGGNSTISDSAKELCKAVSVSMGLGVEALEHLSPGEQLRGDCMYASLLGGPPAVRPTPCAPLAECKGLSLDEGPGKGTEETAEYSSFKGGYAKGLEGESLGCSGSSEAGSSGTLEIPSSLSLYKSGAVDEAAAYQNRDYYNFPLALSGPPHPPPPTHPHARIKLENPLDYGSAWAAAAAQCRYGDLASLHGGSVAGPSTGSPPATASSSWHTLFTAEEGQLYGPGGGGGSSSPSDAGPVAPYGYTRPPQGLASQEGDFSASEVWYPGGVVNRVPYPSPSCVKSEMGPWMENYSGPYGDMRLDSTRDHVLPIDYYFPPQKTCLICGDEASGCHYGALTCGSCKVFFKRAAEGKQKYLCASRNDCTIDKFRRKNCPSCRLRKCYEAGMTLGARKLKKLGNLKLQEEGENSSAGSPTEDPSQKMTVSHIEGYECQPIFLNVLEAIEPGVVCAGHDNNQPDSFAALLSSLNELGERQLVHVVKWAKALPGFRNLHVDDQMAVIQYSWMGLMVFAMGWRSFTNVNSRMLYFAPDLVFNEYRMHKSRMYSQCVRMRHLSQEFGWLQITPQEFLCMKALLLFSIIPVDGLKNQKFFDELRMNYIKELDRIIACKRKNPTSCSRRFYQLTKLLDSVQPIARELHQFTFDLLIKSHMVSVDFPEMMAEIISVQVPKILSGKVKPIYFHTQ

In series [2] the target is T3, Cytochrome P450 2C19 (Homo sapiens, UniProt P33261). The conditions noted are these: bti-tn-5b1-4.
Series [3] concerns the target T3, Cytochrome P450 2C19.
The next series addresses T4, Cytochrome P450 1A2 (Homo sapiens, UniProt P05177).
T4 sequence (P05177 whole entry): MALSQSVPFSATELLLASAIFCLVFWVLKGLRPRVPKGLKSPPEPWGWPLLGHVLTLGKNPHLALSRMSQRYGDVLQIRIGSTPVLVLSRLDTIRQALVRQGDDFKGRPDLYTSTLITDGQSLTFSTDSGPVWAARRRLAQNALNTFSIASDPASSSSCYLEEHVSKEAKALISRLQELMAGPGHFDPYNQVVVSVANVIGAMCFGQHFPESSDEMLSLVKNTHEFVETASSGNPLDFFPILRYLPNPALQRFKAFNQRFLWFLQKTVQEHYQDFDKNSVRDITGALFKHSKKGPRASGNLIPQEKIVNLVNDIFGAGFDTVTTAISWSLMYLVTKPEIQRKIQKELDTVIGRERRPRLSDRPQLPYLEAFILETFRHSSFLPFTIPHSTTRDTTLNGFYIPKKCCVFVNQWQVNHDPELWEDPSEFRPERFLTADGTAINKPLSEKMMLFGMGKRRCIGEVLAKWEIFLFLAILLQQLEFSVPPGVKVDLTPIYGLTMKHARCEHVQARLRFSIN

Sequence of Cytochrome P450 3A4 (P08684 whole entry): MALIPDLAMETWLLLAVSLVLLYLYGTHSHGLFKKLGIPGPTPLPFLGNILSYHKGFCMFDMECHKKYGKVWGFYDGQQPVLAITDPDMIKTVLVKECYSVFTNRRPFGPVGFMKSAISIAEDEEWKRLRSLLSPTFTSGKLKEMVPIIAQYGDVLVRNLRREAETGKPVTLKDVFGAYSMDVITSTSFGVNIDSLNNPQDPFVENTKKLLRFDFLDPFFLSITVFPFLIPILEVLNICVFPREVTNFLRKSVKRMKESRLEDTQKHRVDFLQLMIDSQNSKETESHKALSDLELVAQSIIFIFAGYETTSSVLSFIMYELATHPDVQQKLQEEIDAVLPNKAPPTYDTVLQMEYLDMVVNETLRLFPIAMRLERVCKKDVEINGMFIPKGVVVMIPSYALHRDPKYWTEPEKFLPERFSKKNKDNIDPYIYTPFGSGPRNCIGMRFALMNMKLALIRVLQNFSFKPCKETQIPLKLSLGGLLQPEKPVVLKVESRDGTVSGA
Sequence of Estrogen receptor beta (Q92731 whole entry): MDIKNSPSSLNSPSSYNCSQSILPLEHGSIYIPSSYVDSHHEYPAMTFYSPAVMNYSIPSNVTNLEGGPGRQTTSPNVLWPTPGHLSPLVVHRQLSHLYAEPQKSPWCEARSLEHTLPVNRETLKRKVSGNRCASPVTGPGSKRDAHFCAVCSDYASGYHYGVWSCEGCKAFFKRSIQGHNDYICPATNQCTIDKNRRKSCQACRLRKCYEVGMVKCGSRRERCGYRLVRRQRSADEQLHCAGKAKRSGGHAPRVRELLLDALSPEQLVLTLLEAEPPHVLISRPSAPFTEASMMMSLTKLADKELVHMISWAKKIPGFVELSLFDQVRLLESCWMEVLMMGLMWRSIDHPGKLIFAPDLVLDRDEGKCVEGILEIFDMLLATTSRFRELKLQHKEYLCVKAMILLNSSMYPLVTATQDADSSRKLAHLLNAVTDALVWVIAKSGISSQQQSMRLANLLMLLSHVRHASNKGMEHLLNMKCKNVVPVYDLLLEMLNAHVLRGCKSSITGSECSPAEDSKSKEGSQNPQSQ
T3 sequence (P33261 whole entry): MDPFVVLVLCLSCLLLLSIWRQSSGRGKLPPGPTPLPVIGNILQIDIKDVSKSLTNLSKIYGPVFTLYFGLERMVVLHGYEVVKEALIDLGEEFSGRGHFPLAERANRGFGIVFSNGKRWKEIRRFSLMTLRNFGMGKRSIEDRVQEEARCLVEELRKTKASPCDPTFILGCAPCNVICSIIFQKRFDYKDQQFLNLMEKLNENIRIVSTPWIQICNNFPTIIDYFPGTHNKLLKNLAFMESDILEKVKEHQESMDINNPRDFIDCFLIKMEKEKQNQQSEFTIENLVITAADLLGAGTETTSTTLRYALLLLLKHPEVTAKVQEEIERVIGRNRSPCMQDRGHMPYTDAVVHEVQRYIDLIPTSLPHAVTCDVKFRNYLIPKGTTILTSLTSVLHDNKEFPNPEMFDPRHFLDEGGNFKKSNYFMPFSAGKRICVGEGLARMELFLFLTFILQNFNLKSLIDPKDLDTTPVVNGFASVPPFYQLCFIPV
Sequence of Sodium-dependent noradrenaline transporter (P23975 whole entry): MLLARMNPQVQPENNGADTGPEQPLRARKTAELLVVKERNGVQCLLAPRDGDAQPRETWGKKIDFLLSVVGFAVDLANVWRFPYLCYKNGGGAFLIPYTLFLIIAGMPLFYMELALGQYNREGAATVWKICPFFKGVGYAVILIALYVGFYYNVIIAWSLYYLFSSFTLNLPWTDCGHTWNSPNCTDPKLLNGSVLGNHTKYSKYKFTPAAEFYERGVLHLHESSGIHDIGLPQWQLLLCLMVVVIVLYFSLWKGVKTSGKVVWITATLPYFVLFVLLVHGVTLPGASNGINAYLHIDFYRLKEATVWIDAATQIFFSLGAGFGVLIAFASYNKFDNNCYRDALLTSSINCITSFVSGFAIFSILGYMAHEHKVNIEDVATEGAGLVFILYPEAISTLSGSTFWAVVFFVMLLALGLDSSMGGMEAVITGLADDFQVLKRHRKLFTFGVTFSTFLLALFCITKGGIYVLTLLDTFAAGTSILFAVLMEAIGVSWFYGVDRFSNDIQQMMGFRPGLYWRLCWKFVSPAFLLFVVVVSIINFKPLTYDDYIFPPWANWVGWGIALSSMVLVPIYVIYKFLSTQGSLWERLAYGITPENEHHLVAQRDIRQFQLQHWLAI
Sequence of Cytochrome P450 2C9 (P11712 whole entry): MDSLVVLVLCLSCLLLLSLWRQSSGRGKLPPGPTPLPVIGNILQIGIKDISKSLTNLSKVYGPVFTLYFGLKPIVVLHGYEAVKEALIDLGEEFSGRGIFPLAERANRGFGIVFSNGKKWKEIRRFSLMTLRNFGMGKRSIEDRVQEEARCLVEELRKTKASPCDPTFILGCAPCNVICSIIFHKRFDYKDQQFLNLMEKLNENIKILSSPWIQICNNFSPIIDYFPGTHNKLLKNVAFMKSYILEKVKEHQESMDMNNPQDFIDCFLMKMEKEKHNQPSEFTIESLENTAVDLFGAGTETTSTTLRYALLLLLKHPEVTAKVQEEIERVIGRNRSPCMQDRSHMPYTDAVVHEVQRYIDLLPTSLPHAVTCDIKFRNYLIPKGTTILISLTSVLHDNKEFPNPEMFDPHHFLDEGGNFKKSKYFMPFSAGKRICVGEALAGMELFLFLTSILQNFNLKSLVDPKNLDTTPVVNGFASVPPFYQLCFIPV
Sequence of Cytochrome P450 2D6 (P10635 whole entry): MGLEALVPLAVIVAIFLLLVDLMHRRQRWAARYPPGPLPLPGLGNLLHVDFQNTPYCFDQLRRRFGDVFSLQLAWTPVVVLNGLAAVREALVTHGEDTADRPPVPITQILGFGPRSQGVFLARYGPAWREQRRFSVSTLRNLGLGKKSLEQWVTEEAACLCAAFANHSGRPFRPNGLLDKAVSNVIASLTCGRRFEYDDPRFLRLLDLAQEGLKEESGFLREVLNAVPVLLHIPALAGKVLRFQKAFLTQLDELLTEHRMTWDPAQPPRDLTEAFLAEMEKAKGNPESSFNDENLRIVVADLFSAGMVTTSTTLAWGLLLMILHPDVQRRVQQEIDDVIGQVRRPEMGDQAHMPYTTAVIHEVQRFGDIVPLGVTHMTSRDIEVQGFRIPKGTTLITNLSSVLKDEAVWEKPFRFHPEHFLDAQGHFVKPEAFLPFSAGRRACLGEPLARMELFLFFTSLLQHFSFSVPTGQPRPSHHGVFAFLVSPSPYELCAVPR

As for `CC(CCc1ccccc1)NCC(O)c1ccc(O)c(C(N)=O)c1` (stereo not drawn) [LABETALOL], the IC50 (commonly the concentration needed to halve the response being measured) on Cytochrome P450 3A4 is “Not Active”; at Estrogen receptor beta, “Not Active”; in series [1] (read-out: IC50), 3.35 µM; against Cytochrome P450 2D6, 800 nM; on Estrogen receptor, “Not Active”; against Cytochrome P450 2C9, “Not Active”. Moreover, the Ki – broadly, the dissociation constant of the complex between target and ligand, obtained from inhibition or displacement – on Cytochrome P450 3A4 was “Not Active”; in series [1] it was 3.33 µM; on Cytochrome P450 2C9, “Not Active”.

Regarding `CN1CCN2c3ccccc3Cc3ccccc3C2C1` (stereo not drawn) [MIANSERIN], the IC50 entry at Androgen receptor, at Cytochrome P450 3A4, against Estrogen receptor beta, at Estrogen receptor, at Cytochrome P450 2C9 and against Cytochrome P450 2C19 [2] was “Not Active” each time. The Ki entry on Cytochrome P450 3A4, at Cytochrome P450 2C9 and on Cytochrome P450 2C19 [2] was “Not Active” throughout.

Turning to `O=C1c2c(O)ccc(O)c2C(=O)c2c(NCCNCCO)ccc(NCCNCCO)c21` [MITOXANTRONE], the IC50 result on Androgen receptor was “Not Active”; against Estrogen receptor beta, “Not Active”; in series [1] (read-out: IC50), 4.99 µM. Besides, the Ki in series [1] turned out to be 4.95 µM.

Regarding `CC(C)(O)c1ccccc1CC[C@@H](SCC1(CC(=O)O)CC1)c1cccc(/C=C/c2ccc3ccc(Cl)cc3n2)c1` [MONTELUKAST], the IC50 entry at Androgen receptor, on Cytochrome P450 3A4, against Estrogen receptor beta, against Estrogen receptor, against Cytochrome P450 2C9 and on Cytochrome P450 2C19 [2] was “Not Active” each time. The Ki entry at Cytochrome P450 3A4, at Cytochrome P450 2C9 and at Cytochrome P450 2C19 [2] was “Not Active” throughout.

Turning to `COc1c(C)c2c(c(O)c1C/C=C(\C)CCC(=O)OCCN1CCOCC1)C(=O)OC2` [MYCOPHENOLATE MOFETIL], the IC50 entry (on Androgen receptor; on Cytochrome P450 3A4; against Estrogen receptor beta; in series [1] (mdck); against Estrogen receptor; at Cytochrome P450 2C9) was “Not Active” each time. The IC50 entry against Cytochrome P450 2C19 [2] is on record as “Not Active”. In addition, the Ki entry at Cytochrome P450 3A4, at Cytochrome P450 2C9 and at Cytochrome P450 2C19 [2] was “Not Active” in each case.

Consider `CC(=O)S[C@@H]1CC2=CC(=O)CC[C@]2(C)[C@H]2CC[C@@]3(C)[C@@H](CC[C@@]34CCC(=O)O4)[C@H]12` [SPIRONOLACTONE], for which the IC50 entry against Cytochrome P450 3A4 is “Not Active”; on Estrogen receptor beta, “Not Active”; in series [1] (mdck), “Not Active”; against Estrogen receptor, “Not Active”; against Cytochrome P450 2C19 [3], 3 µM. Also, the Ki entry at Cytochrome P450 3A4 was “Not Active”.

For the molecule `CN(N=O)C(=O)N[C@@H](C=O)[C@@H](O)[C@H](O)[C@H](O)CO` [STREPTOZOCIN], the IC50 result (against Androgen receptor; against Cytochrome P450 3A4; on Estrogen receptor beta; in series [1] (mdck); on Estrogen receptor; at Cytochrome P450 2C9) was “Not Active” in each case. Further, the IC50 result at Cytochrome P450 2C19 [2] is reported as “Not Active”. In addition, the Ki entry on Cytochrome P450 3A4, on Cytochrome P450 2C9 and at Cytochrome P450 2C19 [2] was “Not Active” each time.

As to `C=CC[C@@H]1/C=C(\C)C[C@H](C)C[C@H](OC)[C@H]2O[C@@](O)(C(=O)C(=O)N3CCCC[C@H]3C(=O)O[C@H](/C(C)=C/[C@@H]3CC[C@@H](O)[C@H](OC)C3)[C@H](C)[C@@H](O)CC1=O)[C@H](C)C[C@@H]2OC` [TACROLIMUS ANHYDROUS], the IC50 entry (against Androgen receptor; against Estrogen receptor beta; in series [1] (mdck); against Estrogen receptor; on Cytochrome P450 2C9; on Cytochrome P450 2C19 [2]) was “Not Active” throughout. The Ki result at Cytochrome P450 2C9 and on Cytochrome P450 2C19 [2] was “Not Active” each time.

For `CN(C)[C@@H]1C(O)=C(C(N)=O)C(=O)[C@@]2(O)C(O)=C3C(=O)c4c(O)cccc4[C@@](C)(O)[C@H]3C[C@@H]12` [TETRACYCLINE], the IC50 entry (against Androgen receptor; at Cytochrome P450 3A4; against Estrogen receptor beta; in series [1] (mdck); on Cytochrome P450 2C19 [2]) was “Not Active” throughout. The Ki entry on Cytochrome P450 3A4 and on Cytochrome P450 2C19 [2] was “Not Active” each time.

Take `c1ccc2[nH]c(-c3cscn3)nc2c1` [THIABENDAZOLE]: the IC50 entry against Androgen receptor is “Not Active”; at Cytochrome P450 1A2 it was 0.8 µM; at Estrogen receptor beta it was “Not Active”; in series [1] (mdck), “Not Active”; on Estrogen receptor, “Not Active”; against Cytochrome P450 2C9, “Not Active”. Further, on Cytochrome P450 2C19 [2], the IC50 result was “Not Active”. In addition, the Ki result at Cytochrome P450 2C9 and at Cytochrome P450 2C19 [2] was “Not Active” each time.

Take `CSc1ccc2c(c1)N(CCC1CCCCN1C)c1ccccc1S2` (stereo not drawn) [THIORIDAZINE]: the IC50 result is “Not Active” on Cytochrome P450 3A4; 9.33 µM at Cytochrome P450 1A2; “Not Active” against Estrogen receptor; “Not Active” on Cytochrome P450 2C9; 6.38 µM against Cytochrome P450 2C19 [3]. For the same molecule, the inhibitory constant (Ki) result at Cytochrome P450 3A4 and at Cytochrome P450 2C9 was “Not Active” each time.

With `COc1cccc(C2(O)CCCCC2CN(C)C)c1` (stereo not drawn) [TRAMADOL], the IC50 result against Androgen receptor, on Estrogen receptor, at Cytochrome P450 2C9 and at Cytochrome P450 2C19 [2] was “Not Active” each time. Besides, the Ki entry at Cytochrome P450 2C9 and at Cytochrome P450 2C19 [2] was “Not Active” in each case.

Turning to IVERMECTIN, the IC50 entry on Androgen receptor is “Not Active”; against Cytochrome P450 3A4, “Not Active”; on Estrogen receptor beta it was “Not Active”; in [1] (mdck, read-out: IC50), 3.95 µM; at Estrogen receptor, “Not Active”; against Cytochrome P450 2C9, “Not Active”. Besides, on Cytochrome P450 2C19 [2], the IC50 result was “Not Active”. For the same molecule, the Ki result was “Not Active” at Androgen receptor; “Not Active” on Cytochrome P450 3A4; “Not Active” on Estrogen receptor beta; 3.91 µM in [1] (mdck); “Not Active” at Estrogen receptor; “Not Active” at Cytochrome P450 2C9. On Cytochrome P450 2C19 [2], the Ki entry is given as “Not Active”.
